Where “and” joins values, the source holds several entries; their conditions need not be identical. Identical values can stand only once.
Assays:
[1] = Release of entrapped pyrene from SCMs by fluorescence (I3/I1 ratio); type: physicochemical; conditions: uncrosslinked reference
Text: The intensity ratio between the third (˜384 nm) and the first band (˜372 nm), in particular, is sensitive to changes in the environment.

[2] = Critical micelle concentration of surfactant 1 (surface tension; pyrene I3/I1 fluorescence); type: physicochemical
Text: Pyrene was used as a surrogate for a hydrophobic drug because of its environmentally sensitive fluorescence. […] The intensity ratio between the third (˜384 nm) and the first band (˜372 nm), in particular, is sensitive to changes in the environment. […] The CMC of the surfactant is about 1.4×10^−4 M according to surface tension measurement and 1.5×10^−4 M, according to FIG. 15.

[3] = versus camptothecin; cited from earlier work
[4] = in water at 20° C.; cited from earlier work

Compound: C#CC[N+](CC#C)(CC#C)Cc1ccc(OCCCCCCCCCCCC)cc1.[Br-] [Compound 1, 4-(Dodecyloxy)benzyltripropargylammonium bromide]
- pyrene I3/I1 in uncrosslinked surfactant below the CMC [1]: 0.70
- critical micelle concentration ([2]; in water): 150 µM and 140 µM
- CMC according to pyrene I3/I1 ratio (FIG. 15) ([2]; pyrene fluorescence): 150 µM
- CMC according to surface tension measurement ([2]; surface tension): about 1.4×10^−4 M

Compound: CC[C@@](O)(C(=O)[O-])c1cc2n(c(=O)c1CO)Cc1cc3ccccc3nc1-2.[Na+] [CAM-Na]
- biological activity relative to the parent drug [3]: one-tenth

Compound: CCCCCCCCCCCC[N+](C)(C)C.[Br-] [Dodecyltrimethyl ammonium bromide]
- micellar aggregation number [4]: 55

From patent US10188605B2, “Nanoparticles and nanoparticle compositions” (priority 2010, dated 2019)
